{"source": "ChEMBL document CHEMBL1201862", "about": "“PubChem BioAssay data set” (2004)", "key": {"[1]": {"biological_target": "T1, Tyrosine-protein phosphatase non-receptor type 7 (Homo sapiens, UniProt P35236)", "T1 sequence (P35236 whole entry)": "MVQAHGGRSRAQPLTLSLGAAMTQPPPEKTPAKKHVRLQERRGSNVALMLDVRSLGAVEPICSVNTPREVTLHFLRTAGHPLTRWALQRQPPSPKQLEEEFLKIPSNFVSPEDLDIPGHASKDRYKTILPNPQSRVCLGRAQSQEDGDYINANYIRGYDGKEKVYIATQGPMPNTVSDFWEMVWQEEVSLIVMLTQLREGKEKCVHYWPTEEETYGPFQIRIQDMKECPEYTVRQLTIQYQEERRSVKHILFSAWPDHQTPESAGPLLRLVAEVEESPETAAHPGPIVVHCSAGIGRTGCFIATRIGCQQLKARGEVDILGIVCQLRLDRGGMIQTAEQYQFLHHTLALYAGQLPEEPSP", "type": "functional"}, "[2]": {"biological_target": "Glyceraldehyde-3-phosphate dehydrogenase (Homo sapiens, UniProt P04406)", "sequence (P04406 whole entry)": "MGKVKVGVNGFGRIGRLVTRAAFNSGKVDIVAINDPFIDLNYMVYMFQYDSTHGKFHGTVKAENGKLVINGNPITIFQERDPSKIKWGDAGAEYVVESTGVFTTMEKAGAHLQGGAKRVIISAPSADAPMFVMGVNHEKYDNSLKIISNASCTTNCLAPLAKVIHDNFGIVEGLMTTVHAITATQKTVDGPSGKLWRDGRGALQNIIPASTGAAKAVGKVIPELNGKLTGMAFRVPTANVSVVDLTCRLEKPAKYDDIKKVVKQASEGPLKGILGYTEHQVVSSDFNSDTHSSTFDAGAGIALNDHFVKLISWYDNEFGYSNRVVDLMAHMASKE"}, "[3]": {"biological_target": "T2, Dual specificity protein phosphatase 6 (Rattus norvegicus, UniProt Q64346)", "T2 sequence (Q64346 whole entry)": "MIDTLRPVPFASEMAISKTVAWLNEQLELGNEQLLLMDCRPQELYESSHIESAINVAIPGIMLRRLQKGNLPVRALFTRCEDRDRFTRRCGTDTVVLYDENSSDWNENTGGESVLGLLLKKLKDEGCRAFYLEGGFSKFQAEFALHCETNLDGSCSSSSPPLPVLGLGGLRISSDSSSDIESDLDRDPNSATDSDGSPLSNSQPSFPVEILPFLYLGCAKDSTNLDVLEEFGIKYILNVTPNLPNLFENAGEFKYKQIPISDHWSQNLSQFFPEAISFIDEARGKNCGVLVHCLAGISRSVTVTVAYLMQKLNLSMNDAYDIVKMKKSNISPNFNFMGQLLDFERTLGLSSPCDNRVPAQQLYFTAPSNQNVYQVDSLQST"}, "[4]": {"biological_target": "T2, Dual specificity protein phosphatase 6", "type": "functional"}, "[5]": {"biological_target": "DNA dC->dU-editing enzyme APOBEC-3A (Homo sapiens, UniProt P31941)", "sequence (P31941 whole entry)": "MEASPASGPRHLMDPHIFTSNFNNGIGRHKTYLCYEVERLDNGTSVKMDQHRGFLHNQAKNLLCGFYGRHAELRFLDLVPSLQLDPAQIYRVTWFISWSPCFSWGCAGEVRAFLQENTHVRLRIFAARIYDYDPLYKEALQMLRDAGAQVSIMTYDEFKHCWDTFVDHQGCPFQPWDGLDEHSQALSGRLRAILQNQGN", "assay": "APOBEC3A DNA deaminase inhibitors, dose response, biochemical (AID 504722)", "type": "functional"}, "[6]": {"biological_target": "Glucose-6-phosphate 1-dehydrogenase (Homo sapiens, UniProt P11413)", "sequence (P11413 whole entry)": "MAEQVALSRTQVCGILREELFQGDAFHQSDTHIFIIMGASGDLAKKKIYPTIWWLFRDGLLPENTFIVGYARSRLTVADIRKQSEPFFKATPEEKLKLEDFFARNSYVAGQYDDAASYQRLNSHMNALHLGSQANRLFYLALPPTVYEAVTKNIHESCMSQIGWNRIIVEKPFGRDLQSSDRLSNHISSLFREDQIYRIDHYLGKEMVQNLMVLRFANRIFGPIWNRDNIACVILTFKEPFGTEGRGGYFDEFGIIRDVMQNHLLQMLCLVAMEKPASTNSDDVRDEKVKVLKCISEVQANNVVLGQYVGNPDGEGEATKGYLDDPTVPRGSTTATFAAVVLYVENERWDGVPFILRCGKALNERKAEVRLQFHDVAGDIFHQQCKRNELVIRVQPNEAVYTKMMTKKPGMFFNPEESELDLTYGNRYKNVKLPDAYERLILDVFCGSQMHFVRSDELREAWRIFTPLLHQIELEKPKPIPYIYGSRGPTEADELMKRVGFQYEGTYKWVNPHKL", "assay": "human G6PD enzyme inhibitors, dose response, selectivity assay for P. falciparum G6PD inhibitor project, biochemical, fluorescence (AID 504792)", "type": "functional"}, "[7]": {"biological_target": "DNA dC->dU-editing enzyme APOBEC-3G (Homo sapiens, UniProt Q9HC16)", "sequence (Q9HC16 whole entry)": "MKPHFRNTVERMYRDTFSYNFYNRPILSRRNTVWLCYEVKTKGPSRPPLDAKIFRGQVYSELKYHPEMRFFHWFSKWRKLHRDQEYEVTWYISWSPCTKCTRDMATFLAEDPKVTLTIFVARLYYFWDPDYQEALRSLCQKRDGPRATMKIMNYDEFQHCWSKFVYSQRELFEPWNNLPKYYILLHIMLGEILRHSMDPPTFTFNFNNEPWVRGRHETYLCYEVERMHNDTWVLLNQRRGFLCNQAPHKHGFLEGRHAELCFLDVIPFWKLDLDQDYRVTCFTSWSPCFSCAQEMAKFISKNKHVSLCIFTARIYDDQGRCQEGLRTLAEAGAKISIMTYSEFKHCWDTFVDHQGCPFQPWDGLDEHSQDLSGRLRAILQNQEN", "assay": "Dose Response confirmation of small molecule APOBEC3G DNA Deaminase Inhibitors via a fluorescence-based single-stranded DNA deaminase assay. [Related pubchem assays (depositor defined):AID493012, AID493028]", "type": "functional"}, "[8]": {"biological_target": "Lysine-specific demethylase 4C (Homo sapiens, UniProt Q9H3R0)", "sequence (Q9H3R0 whole entry)": "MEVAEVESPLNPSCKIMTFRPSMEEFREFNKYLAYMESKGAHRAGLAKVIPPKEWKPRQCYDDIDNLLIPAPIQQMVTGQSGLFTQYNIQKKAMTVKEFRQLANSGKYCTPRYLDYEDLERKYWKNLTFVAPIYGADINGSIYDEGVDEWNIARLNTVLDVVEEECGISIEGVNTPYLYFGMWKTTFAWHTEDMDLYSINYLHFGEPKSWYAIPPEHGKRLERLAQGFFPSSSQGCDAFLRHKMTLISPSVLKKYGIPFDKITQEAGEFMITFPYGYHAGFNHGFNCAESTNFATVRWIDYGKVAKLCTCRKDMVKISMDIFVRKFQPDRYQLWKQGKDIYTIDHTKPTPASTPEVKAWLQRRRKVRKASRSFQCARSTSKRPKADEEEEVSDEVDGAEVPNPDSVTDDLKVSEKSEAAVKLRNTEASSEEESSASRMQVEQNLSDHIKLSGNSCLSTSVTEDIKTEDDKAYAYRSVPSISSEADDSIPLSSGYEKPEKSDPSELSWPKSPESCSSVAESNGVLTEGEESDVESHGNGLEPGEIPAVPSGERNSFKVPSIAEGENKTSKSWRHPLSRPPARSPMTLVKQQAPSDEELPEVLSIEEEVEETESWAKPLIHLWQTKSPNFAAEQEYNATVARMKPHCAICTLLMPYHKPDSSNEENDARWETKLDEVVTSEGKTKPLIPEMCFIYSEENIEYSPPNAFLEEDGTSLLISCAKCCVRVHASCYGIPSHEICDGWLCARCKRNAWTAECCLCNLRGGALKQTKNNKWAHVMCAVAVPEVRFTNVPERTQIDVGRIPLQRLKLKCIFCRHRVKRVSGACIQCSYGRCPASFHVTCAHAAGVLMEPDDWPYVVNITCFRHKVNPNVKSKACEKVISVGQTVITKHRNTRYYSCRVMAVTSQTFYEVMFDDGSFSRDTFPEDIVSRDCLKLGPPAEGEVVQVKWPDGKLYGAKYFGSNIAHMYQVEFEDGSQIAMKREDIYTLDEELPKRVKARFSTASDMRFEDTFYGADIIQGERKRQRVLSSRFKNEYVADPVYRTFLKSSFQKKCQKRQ", "assay": "GASC-1 (JMJD2C) histone demethylase inhibitors, dose response, biochemical, DELFIA europium, cherry-picked samples (AID 488835)", "type": "functional"}, "[9]": {"biological_target": "Tumor necrosis factor (Homo sapiens, UniProt P01375)", "sequence (P01375 whole entry)": "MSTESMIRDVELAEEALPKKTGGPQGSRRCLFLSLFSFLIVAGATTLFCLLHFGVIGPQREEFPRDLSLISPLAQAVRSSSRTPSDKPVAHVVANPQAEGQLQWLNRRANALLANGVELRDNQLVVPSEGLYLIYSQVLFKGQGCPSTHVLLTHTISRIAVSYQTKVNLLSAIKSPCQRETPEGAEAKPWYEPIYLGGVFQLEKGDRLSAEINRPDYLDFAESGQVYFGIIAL", "assay": "TNFa-triggered NF-kB activation inhibitors, SAR follow-up, cell-based, revised (AID 2337)", "type": "functional"}, "[10]": {"biological_target": "T3, Nucleotide-binding oligomerization domain-containing protein 1 (Homo sapiens, UniProt Q9Y239)", "T3 sequence (Q9Y239 whole entry)": "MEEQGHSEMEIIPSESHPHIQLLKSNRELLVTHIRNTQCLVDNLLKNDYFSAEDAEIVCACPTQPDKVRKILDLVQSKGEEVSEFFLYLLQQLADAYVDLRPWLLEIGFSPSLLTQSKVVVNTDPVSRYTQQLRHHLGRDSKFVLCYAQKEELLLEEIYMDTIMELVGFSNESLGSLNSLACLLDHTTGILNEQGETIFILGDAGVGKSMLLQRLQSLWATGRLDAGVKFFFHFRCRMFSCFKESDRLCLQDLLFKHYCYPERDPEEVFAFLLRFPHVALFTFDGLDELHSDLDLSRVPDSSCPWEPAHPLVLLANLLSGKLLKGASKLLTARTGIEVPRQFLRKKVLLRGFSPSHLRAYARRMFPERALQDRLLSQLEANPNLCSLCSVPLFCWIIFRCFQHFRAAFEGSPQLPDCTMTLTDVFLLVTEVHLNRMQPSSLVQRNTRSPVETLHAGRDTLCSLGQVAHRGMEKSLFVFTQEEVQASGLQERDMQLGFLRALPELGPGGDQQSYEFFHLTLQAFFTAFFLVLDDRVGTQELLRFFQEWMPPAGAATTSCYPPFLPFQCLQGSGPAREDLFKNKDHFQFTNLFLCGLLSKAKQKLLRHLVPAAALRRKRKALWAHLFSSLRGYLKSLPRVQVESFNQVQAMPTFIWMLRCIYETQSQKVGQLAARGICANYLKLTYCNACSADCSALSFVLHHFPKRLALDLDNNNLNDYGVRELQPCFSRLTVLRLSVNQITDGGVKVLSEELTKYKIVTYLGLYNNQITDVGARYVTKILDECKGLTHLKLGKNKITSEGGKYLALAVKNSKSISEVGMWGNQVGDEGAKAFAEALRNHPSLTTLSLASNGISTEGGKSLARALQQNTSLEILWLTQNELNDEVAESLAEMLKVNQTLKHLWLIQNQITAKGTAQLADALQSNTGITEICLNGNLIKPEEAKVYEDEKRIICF", "assay": "NOD1 signaling inhibitors, SAR follow-up, revised (AID 2333)", "type": "functional"}, "[11]": {"tested_on": "HEK293", "assay": "cells", "conditions": "Homo sapiens"}, "[12]": {"biological_target": "T4, Mannose-6-phosphate isomerase (Homo sapiens, UniProt P34949)", "T4 sequence (P34949 whole entry)": "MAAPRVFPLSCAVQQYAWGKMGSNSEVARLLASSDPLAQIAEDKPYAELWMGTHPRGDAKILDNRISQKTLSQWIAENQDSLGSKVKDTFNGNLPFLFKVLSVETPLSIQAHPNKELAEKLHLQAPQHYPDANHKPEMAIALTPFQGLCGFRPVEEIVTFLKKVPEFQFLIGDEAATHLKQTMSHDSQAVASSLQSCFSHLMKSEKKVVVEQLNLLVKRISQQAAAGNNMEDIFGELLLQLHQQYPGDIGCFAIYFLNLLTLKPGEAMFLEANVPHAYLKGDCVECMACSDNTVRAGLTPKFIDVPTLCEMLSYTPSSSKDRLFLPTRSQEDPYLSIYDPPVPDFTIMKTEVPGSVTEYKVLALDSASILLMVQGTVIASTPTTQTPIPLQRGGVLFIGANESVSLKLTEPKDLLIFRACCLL", "assay": "human PMI inhibitors, high substrate, primary screen, biochemical, fluorescence intensity, high mannose 6-phosphate (AID 1220)"}, "[13]": {"assay": "THP-1 cell cytotoxicity, dose response, cytotoxicity control for Vif-APOBEC3G degradation inhibitor project, THP-1 cells (AID 1117359)", "type": "functional", "conditions": "Human immunodeficiency virus 1, THP-1"}}, "note": "Activity calls are given as the source filed them. Cut-off read from the data, not from the text of the source, for most assays here: actives have a measured IC50 and inactives only a lower limit."}
{"smiles": "O=C(Cc1cccs1)Nc1ccon1", "values": [{"measurement": "IC50", "setting": "[1]", "result": "> 100 µM (not active)"}, {"measurement": "IC50", "setting": "[2]", "result": "27.4 µM (active)"}, {"measurement": "IC50", "setting": "[3]", "result": "> 100 µM (inactive)"}, {"measurement": "IC50", "setting": "[4]", "result": "> 100 µM (inactive)"}]}
{"smiles": "O=S(=O)(Nc1ccccc1F)c1cccc(NC(=S)NCCN2CCOCC2)c1", "values": [{"measurement": "IC50", "setting": "[5]", "result": "> 100 µM (inactive)"}, {"measurement": "IC50", "setting": "[6]", "result": "> 80 µM (inactive)"}, {"measurement": "IC50", "setting": "[7]", "result": "7.38 µM (active)"}, {"measurement": "AC50", "setting": "[8]", "result": "8.95 µM (active)"}]}
{"smiles": "COC(=O)CC1=NN(c2nc3ccccc3s2)C(=O)/C1=C(/C)Nc1ccc(Cl)cc1", "values": [{"measurement": "IC50", "setting": "[9]", "result": "36.9 nM (active)"}, {"measurement": "IC50", "setting": "[10]", "result": "< 39.1 nM (active)"}, {"measurement": "IC50", "setting": "[11]", "result": "> 20 µM (inactive)"}]}
{"smiles": "Oc1cccc(/C=N/NC(=S)NCCN2CCOCC2)c1O", "values": [{"measurement": "IC50", "setting": "[12]", "result": "23.6 µM (active)"}, {"measurement": "AC50", "setting": "[8]", "result": "4.02 µM (active)"}, {"measurement": "CC50", "setting": "[13]", "result": "17.9 µM (active)"}]}
